Reference: patent US20250026733A1, “DEUTERATED ANALOGS OF PYROLE INHIBITORS OF ERK, SYNTHESIS THEREOF AND INTERMEDIATES THERETO” (BIOMED VALLEY DISCOVERIES, INC., priority 2022, published 2025)
Like-named read-outs stand apart in the source and are kept apart here. Marks after values point to notes of the source that are not given here.

Experiments:
[1] = Steady-state exposure of ulixertinib and metabolites in rat; assay type: in vivo; details: for % of total Ulixertinib related exposure: day 5, steady state; for AUC at 5 day: in vivo, day 5, non-isotopically enriched ulixertinib and related metabolites, read-out: Steady-State AUC (Mean ± SD)
Source text: (§1) The steady state exposure levels of non-isotopically enriched parent ulixertinib and related metabolites in rat (day 5) and human subjects (day 15) is provided in TABLE 1 below: […]

[2] = Steady-state exposure of ulixertinib and metabolites in human subjects; assay type: in vivo; details: for % of total Ulixertinib related exposure: day 15, steady state; for AUC at 15 day: in vivo, day 15, non-isotopically enriched ulixertinib and related metabolites, read-out: Steady-State AUC (Mean ± SD)
Source text: as §1

[3] = Pharmacokinetics and metabolite formation in rats; assay type: in vivo, rat; details: rat, in vivo; for AUC(0-t) / half-life: both sexes, po, 12.5 mg/kg; for AUC0-12 M2, percent change relative to Ulixertinib / AUC0-12 M3, percent change relative to Ulixertinib / AUC0-12 M6, percent change relative to Ulixertinib / AUC0-12 Parent, percent change relative to Ulixertinib / Half-life, percent change relative to Ulixertinib / longer mean half-life than ulixertinib: both
Procedure: Ulixertinib, Formulas 18A, 19A, and 21A were dosed twice daily (12 hours apart, ±30 minutes) for five consecutive days (10 doses/animal) to rats via oral gavage (PO). Each compound was administered at a dose of 12.5 mg/kg to 6 rats (3 male/3 female, N=6 rats/compound). Each compound was formulated in 1% (w/v) carboxymethylcellulose (CMC) in water at a concentration of 1.25 mg/mL. Following the second (p.m.) dose on Day 5, blood samples were collected from each rat at approximately 0.5, 1, 2, 4, 6, 8, and 12 hours post-dose. Blood samples were centrifuged to obtain plasma. Plasma samples were analyzed for concentrations of the dosed compounds and selected metabolites using an established LC-MS/MS method. The lower limit of quantitation of each compound was 1.00 ng/mL. The rat half-life values (determined by non-compartmental analysis using WinNonlin software) for each compound are shown in Table 7, and the areas under curve from time 0 to hour 12 (AUC0-12), calculated using the linear trapezoidal rule, for each dosed compound and selected metabolites are presented in Table 8.

[4] = test system: phospho-ERK1/2 to total ERK1/2 in A375 cells; assay: A375 pERK/ERK dose response study (MSD); assay type: cell-based; details: Homo sapiens, A-375, ratio of phospho-ERK1/2 to total ERK1/2
Procedure: A375 pERK/ERK Dose Response Study:
Briefly, A375 cells were plated at 30,000 cells/well in 2×96 well plates, allowed to recover overnight, washed and fed fresh media the next day then treated with a dose response of the selected compounds. Following the determined pretreatment time with the compounds at 37° C./5% CO2, the media was aspirated, and cells lysed with cold, complete MESO Scale Discovery (MSD) lysis buffer. pERK and total ERK1/2 levels were measured using MESO Scale Discover Phospho(Thr202/Tyr204; Thr185/Tyr187)/Total ERK1/2 kits. The protocol and all reagents were provided in the kit. All wells were blocked with 150 μl Blocking Solution for one hour. […] of lysis buffer was added per well and incubated overnight at 4° C. Following the overnight incubation, the wells were washed three times with Tris Wash buffer, then […] of 1× Detection Antibody was added per well and incubated at room temperature for one hour with vigorous shaking. All wells were then washed three times with Tris Wash Buffer before 150 μl of 1× Read Buffer was added per well and the plates read using the MSD Sector Imager. Data were calculated as a ratio of phospho-ERK1/2 to total ERK1/2 to allow for normalization of the samples.

pRSK/RSK in A375 cells = assay: A375 pRSK/RSK dose response study (ELISA); assay type: cell-based; details: Homo sapiens, A-375, pRSK and total RSK ELISA
Procedure: A375 pRSK/RSK Dose Response Study
Briefly, A375 cells were plated at 30,000 cells/well in 2×96 well plates, allowed to recover overnight, washed and fed fresh media the next day then treated with a dose response of the selected compounds. Following the determined pretreatment with the compounds at 37° C./5% CO2 the media was aspirated, and cells lysed with cold, complete MSD lysis buffer. pRSK and total RSK were analyzed using CST/PathScan pRSK and total RSK ELISAS according to the respective kit protocols. All samples were analyzed at 90% of remaining sample in pRSK and 10% of remaining sample in total RSK ELISA, which was performed following kit protocols.

[5] = Half-life determination in human liver microsomes; assay type: in vitro ADME; details: for half-life at 1 μM: human, NADPH
Procedure: Human microsomes from a pool of 10 donors was obtained from a commercial source. Microsomes prepared in potassium phosphate buffer were spiked with ulixertinib, Formula 18, Formula 19, and Formula 21 individually in replicates of six at a final concentration of 1 μM. NADPH was used to initiate the experiment; a control of minus NADPH (minus cofactor) was also run in parallel to the human liver microsome stability. After spiking with test article, microsome replicates were placed in a 37° C. incubator with the following time course: 0, 5, 10, 15, 20, 30, 45 and 60 minutes. Samples were extracted with a protein precipitation quench consisting of ice cold acetonitrile containing internal standard (tolbutamide). Samples were analyzed for ulixertinib, Formula 18, Formula 19, and Formula 21. The half-lives of ulixertinib, Formula 18, Formula 19, and Formula 21 were characterized by the […] to determine the elimination rate (ke) and using the formula described below.
[formula] • ke (elimination rate): the slope of ln(percent remaining) vs time (in minutes)

A375 cells = assay: A375 proliferation assay (Cell TiterGlo); assay type: cell-based; details: Homo sapiens, A-375, 72 hours
Procedure: Mechanism of Action (MOA) Cell Assay—A375 Cell Proliferation, pERK/ERK and pRSK/RSK Analysis:
Briefly, A375 cells were plated at 10,000 cells/well in three 96 well plates. Plates were incubated overnight at 37° C. and allowed to recover. Cells were washed with 150 μL of DPBS and 90 μL of fresh media was added to each well. The cells were then treated with a dose response of the selected compounds. Compounds were diluted from stock concentrations (10 mM in DMSO). Serial dilutions were made in DMSO, yielding 8 total different concentrations per compound. At time of compound addition, the control plate was analyzed using Cell TiterGlo to set baseline for proliferation. Compound treated cells were allowed to grow at 37° C./5% CO2 for 72 hours then analyzed using Cell TiterGlo according to kit protocol.

| Structure (SMILES) | % of total Ulixertinib related exposure [1] [%] | AUC at 5 day [1] [ng·h/mL] | % of total Ulixertinib related exposure [2] [%] | AUC at 15 day [2] [ng·h/mL] | AUC(0-t) [3] [µg·h/mL] | half-life [3] [min] | AUC0-12 M2, percent change relative to Ulixertinib [3] | AUC0-12 M3, percent change relative to Ulixertinib [3] | AUC0-12 M6, percent change relative to Ulixertinib [3] | AUC0-12 Parent, percent change relative to Ulixertinib [3] | Half-life, percent change relative to Ulixertinib [3] | longer mean half-life than ulixertinib [3] [%] | other results |
| --- | --- | --- | --- | --- | --- | --- | --- | --- | --- | --- | --- | --- | --- |
| C[C@H](CO)Nc1cc(-c2c[nH]c(C(=O)N[C@H](CO)c3cccc(Cl)c3)c2)c(Cl)cn1 [Formula 34] | 8.1 | 15900 ± 4700 | 49.9 | 39400 ± 12000 |  |  |  |  |  |  |  |  | Formula 34/Ulixertinib steady-state AUC ratio ([1]; day 5): 0.09; Formula 34/Ulixertinib steady-state AUC ratio ([2]; day 15): 1.3 |
| C[C@H](Nc1cc(-c2c[nH]c(C(=O)N[C@H](CO)c3cccc(Cl)c3)c2)c(Cl)cn1)C(=O)O [Formula 37] | 0.2 | 400 ± 200 | 8.2 | 6500 ± 5500 |  |  |  |  |  |  |  |  |  |
| [2H]C(C)(C)Nc1cc(-c2c[nH]c(C(=O)N[C@H](CO)c3cccc(Cl)c3)c2)c(Cl)cn1 [Formula 21, 4-(5-chloro-2-((propan-2-yl-2-d1)amino)pyridin-4-yl)-N-(1-(3-chlorophenyl)-2-hydroxyethyl)-1H-pyrrole-2-carboxamide] |  |  |  |  |  |  |  |  |  |  |  |  | IC50 [4]: 64 nM; IC50 (pRSK/RSK in A375 cells): 37 nM; longer half-life than ulixertinib ([5]; Table 5): 30%; half-life at 1 μM ([5]; Rep 1, read-out: Half-life, t½, Rep 1): 60.9 min; half-life at 1 μM ([5]; Rep 2, read-out: Half-life, t½, Rep 2): 75.8 min; half-life at 1 μM ([5]; Rep 3, read-out: Half-life, t½, Rep 3): 64.4 min; half-life at 1 μM ([5]; Rep 4, read-out: Half-life, t½, Rep 4): 61.5 min; half-life at 1 μM ([5]; Rep 5, read-out: Half-life, t½, Rep 5): 59.5 min; half-life at 1 μM ([5]; Rep 6, read-out: Half-life, t½, Rep 6): 60.8 min; half-life at 1 μM ([5]; six replicates, read-out: Half-life, t½, Mean ± SD): 63.8 ± 6.1 min; Half-life, % change relative to ulixertinib ([5]; mean): (+30%); IC50 (A375 cells): 310 nM |
| C[C@@H](CO)Nc1cc(-c2c[nH]c(C(=O)N[C@H](CO)c3cccc(Cl)c3)c2)c(Cl)cn1 [Formula 35] | 0.6 | 1200 ± 200 | 4.3 | 3400 ± 2300 |  |  |  |  |  |  |  |  |  |

The next lines start with results.

| % of total Ulixertinib related exposure [1] [%] | AUC at 5 day [1] [ng·h/mL] | % of total Ulixertinib related exposure [2] [%] | AUC at 15 day [2] [ng·h/mL] | AUC(0-t) [3] [µg·h/mL] | half-life [3] [min] | AUC0-12 M2, percent change relative to Ulixertinib [3] | AUC0-12 M3, percent change relative to Ulixertinib [3] | AUC0-12 M6, percent change relative to Ulixertinib [3] | AUC0-12 Parent, percent change relative to Ulixertinib [3] | Half-life, percent change relative to Ulixertinib [3] | longer mean half-life than ulixertinib [3] [%] | Structure (SMILES) | other results |
| --- | --- | --- | --- | --- | --- | --- | --- | --- | --- | --- | --- | --- | --- |
|  |  |  |  | 199 | 240 | (−17%^a) | (−84%^a) | (−35%) | (+15%^a) | (+9%^a) | 9 | Cl.[2H]C([2H])([2H])C(Nc1cc(-c2c[nH]c(C(=O)N[C@H](CO)c3cccc(Cl)c3)c2)c(Cl)cn1)C([2H])([2H])[2H] [Formula 19A] |  |
|  |  |  |  | 228 | 251 | (−4%^a) | (−75%^a) | (+25%^a) | (+32%^a) | (+14%^a) | 14 | Cl.[2H]C([2H])([2H])C([2H])(Nc1cc(-c2c[nH]c(C(=O)N[C@H](CO)c3cccc(Cl)c3)c2)c(Cl)cn1)C([2H])([2H])[2H] [Formula 18A] |  |
